From patent publication US20100048516A1, “PENETRATION ENHANCER FOR FUNGICIDES” (Bayer CropScience AG, priority 2006, published 2010)
“Also recorded” adds a separate entry of the source.

Tests used:
[1] = Penetration test: penetration of radioactively marked active substance through isolated apple leaf cuticles in diffusion cells; conditions: for % Penetration (after hours): acetone/tap water 20/80% by weight, 20-25° C., rel. humidity 56-60%, mean of 4-8 repetitions
Description: In this test, the penetration of active substances through enzymatically isolated cuticles of apple tree leaves was measured. The cuticles represent all green plant parts, such as leaf blade, petiole, stalk, trunk, hypocotyl and many fruits.
Leaves which were cut off in the stage of full development of apple trees of the Golden Delicious variety were used. The isolation of the cuticles was effected in a manner such that • first, leaf disks marked on the underside with dye and punched out were filled by means of vacuum infiltration with a pectinase solution (0.2 to 2% strength by weight) buffered to a pH between 3 and 4, • sodium azide was then added and • the leaf disks thus treated were allowed to stand until disintegration of the original leaf structure and detachment of the noncellular cuticle.
Thereafter, only those cuticles of the upper sides of the leaves which were free of stomata and hairs were further used. They were washed several times alternately with water and a buffer solution at pH 7. The cleaned cuticles obtained were finally drawn onto small Teflon plates and smoothed and dried with a gentle air jet.
In the next step, the cuticle membranes thus obtained were placed in stainless steel diffusion cells (=transport chambers) for membrane transport investigations. For this purpose, the cuticles were placed by means of forceps centrally on the silicone grease-coated edges of the diffusion cells and closed with a likewise greased ring. The arrangement was chosen so that the morphological outside of the cuticles faced outward, i.e. toward the air, while the original inside faced the interior of the diffusion cell. The diffusion cells were filled with water or with a mixture of water and solvent.
For determining the penetration, in each case 10 μl of a spray liquor of the composition mentioned in the examples were applied to the outside of a cuticle.
In each case the solvents listed below in the table (tap water or a mixture with 20% by weight of acetone/80% by weight of tap water) were used in the spray liquors.
After the application of the spray liquors, in each case the solvent was allowed to evaporate, and in each case the chambers were then turned around and placed in thermostated trays, air having a defined temperature and atmospheric humidity being blown onto the outside of the cuticle. The incipient penetration therefore took place at a relative humidity of 60% and a set temperature of 20 or 25° C. The active substance penetration was measured with radioactively marked active substance.

crop plant = test: Crop plant tolerance tests of TBEP versus other alkyl ester additives; type: in vivo; conditions: compared with other alkyl ester additives
[2] = after 3 hours, 0.2 g/l active substance without or with 0.5 g/l TBEP, apple leaf cuticles
[3] = after 24 hours, 0.2 g/l active substance without or with 0.5 g/l TBEP, apple leaf cuticles

Compound | % Penetration (after hours) [1, 2] | % Penetration (after hours) [1, 3] | other results
CCOC(=O)C1=NN(c2ccc(Cl)cc2Cl)C(C)(C(=O)OCC)C1 (stereo not drawn) [mefenpyr-diethyl, ethyl 1-(2,4-dichlorophenyl)-5-(ethoxycarbonyl)-5-methyl-2-pyrazoline-3-carboxylate] | 0.4 (3) % | 4.9% | 
O=C(Nc1ccccc1)Nc1cnns1 [thidiazuron] |  |  | % Penetration (after hours) ([1]; after 6 hours, 0.2 g/l thidiazuron without or with 3 g/l TBEP, apple leaf cuticles): 0.6 (6) %; % Penetration (after hours) ([1]; after 24 hours, 0.2 g/l thidiazuron without or with 3 g/l TBEP, apple leaf cuticles): 0.9%
CCOC(=O)C(C)Oc1ccc(Oc2nc3ccc(Cl)cc3o2)cc1 (stereo not drawn) [fenoxaprop-P-ethyl, ethyl 2-(4-(6-chlorobenzoxazol-2-yloxy)phenoxy)propionate] |  |  | % Penetration (after 24 hours) ([1]; apple tree, 24 h, 0.3 g/l): 0.3%; % Penetration (after 48 hours) ([1]; apple tree, 48 h, 0.3 g/l): 0.9%
CCCCOCCOP(=O)(OCCOCCCC)OCCOCCCC [TBEP, tributoxyethyl phosphate] |  |  | Effect of the penetration enhancer on uptake of active substances (in words) ([1]; summary of tables 1 and 2, apple leaf cuticles): considerable increase in uptake of the active substances; also recorded: advantageously higher increase in uptake of active substances than the penetration enhancers of the prior art; Crop plant tolerance (in words) (crop plant): more tolerant than other alkyl ester additives
CCOC(=O)C1=NOC(c2ccccc2)(c2ccccc2)C1 [isoxadifen-ethyl, ethyl 5,5-diphenyl-2-isoxazolinecarboxylate] | 1.7 (3) % | 17.4% | 
COc1ccccc1C(=O)NS(=O)(=O)c1ccc(C(=O)NC2CC2)cc1 [cyprosulfamide, 4-cyclopropylaminocarbonyl-N-(2-methoxybenzoyl)benzenesulfonamide] | 0.1 (3) % | 0.3% | 
